The values below come from patent US10758501B2, “Use of histone acetyltransferase inhibitor amidoximes as anti-proliferative agents” (Texas Woman's University, priority 2017, dated 2020).

“And” between values parts separate entries of the source, which are not always exact repeats. Equal values may be shown once. Read-outs that look alike come from different tables or passages of the source.

Data set [1] relates to MCF-7 (breast adenocarcinoma). Briefly: MTS growth inhibition assay, MCF-7. Format: cell-based, human. The protocol:
(§1) In Table 1, the various compounds listed were tested for induction of death in various malignant human cell lines and were compared to the commercial HAT inhibitor garcinol (0.2-500 μM). Specifically, Table 1 describes the summary of the growth inhibitory effect (in μM) of nine novel bisamidoximes on six malignant cell lines, as measured by MTS assay. MTS assay is a colorimetric based cytotoxicity assay that determines the number of viable cells. The numbers in the table represent Growth Inhibition GI50 (±standard deviation), which is the concentration of the drug where 50% of the cells are killed. Garcinol, a known HAT inhibitor, was used as a positive control. The cell lines used were: HCT-116 (colorectal carcinoma), DU-145 (prostate carcinoma), SK-OV-3 (ovarian adenocarcinoma), HLF-a (lung epidermoid carcinoma), MCF-7 & MDA-MB-231 (breast adenocarcinoma) and NHDF (normal human dermal fibroblasts). The cells were treated with compounds JJMB 1-9 for 48 hrs (MCF-7 for 72 hrs) at various concentrations ranging from 0.2 μM to 500 μM. One-way ANOVA was performed to assess the differences between the groups. Differences in means between control and treatment groups were analyzed by post-hoc Dunnett's test, p<0.05. Data is reported as the mean ±SD, n =3. […] The compounds tested (JJMB5, JJMB6, JJMB7, and JJMB9) could efficiently kill several malignant cell-lines in concentration range of micromolars. (See Table 1). […] From these tests it is clear that the compounds affected several cells lines of the three major types of cancers: breast, lung, and colon.
Combination studies performed on human breast cancer cell line MCF-7 and human colon cancer cell line HCT 116 were measured by MTS assay. The cells were treated with novel bisamidoximes JJMB 5, 7, and 9, for 48 hours (72 hours for MCF-7), individually or in combination. Growth Inhibition (GI50) was measured. *—Indicates a significant difference when the drugs were used in combination compared to when the drugs were used individually as determined by one-way ANOVA, p≤0.05.
(§2) Combination studies of bisamidoximes and cisplatin were performed on human breast cancer cell line MCF-7, human colon cancer cell line HCT-116, and murine mammary malignant cell lines measured by MTS assay. The cells were treated with novel bisamidoximes JJMB 5, 7, and 9, for 48 hours (72 hours for MCF-7), individually or in combination with cisplatin. Growth Inhibition (GI50) was measured. *—Indicates a significant difference when the drugs were used in combination with cisplatin compared to when the drugs were used individually as determined by one-way ANOVA, p≤0.05.
For orientation: Formazan colour is commonly taken as a measure of viable cells.

For data set [2], the system named is HCT-116 (colorectal carcinoma). As to the kind of experiment: MTS growth inhibition assay, HCT-116. Format: cell-based, human. As for the experimental part:
as §1, with “colon. […]” for “colon.”
as §2

Data set [3] relates to DU-145 (prostate carcinoma). As to the kind of experiment: MTS growth inhibition assay, DU-145. Format: cell-based. The conditions noted are these: Homo sapiens, 48 hrs, 0.2-500 μM, mean ±SD n=3, read-out: Growth Inhibition GI50 (±standard deviation), Prostate (DU-145). The protocol: as §1
Data set [4] deals with HLF-a (lung epidermoid carcinoma). Briefly: MTS growth inhibition assay, HLF-a. The note with it: Homo sapiens, 48 hrs, 0.2-500 μM, mean ±SD n=3, read-out: Growth Inhibition GI50 (±standard deviation), Lung (HLF-A). Format: cell-based. The protocol: as §1
A short description of data set [5]: MTS growth inhibition assay, NHDF. Format: cell-based. The note with it: NHDF (normal human dermal fibroblasts), 0.2-500 μM, read-out: Growth Inhibition GI50 (±standard deviation), Normal (NHDF). The protocol:
as §1

In data set [6] the test system is SK-OV-3 (ovarian adenocarcinoma). Briefly: MTS growth inhibition assay, SK-OV-3. Format: cell-based. The conditions noted are these: Homo sapiens, 48 hrs, 0.2-500 μM, mean ±SD n=3, read-out: Growth Inhibition GI50 (±standard deviation), Ovarian (SKOV-3). The protocol:
as §1

For data set [7], the system named is MDA-MB-231 (breast adenocarcinoma). As to the kind of experiment: MTS growth inhibition assay, MDA-MB-231. Format: cell-based. The conditions noted are these: Homo sapiens, 48 hrs, 0.2-500 μM, mean ±SD n=3, read-out: Growth Inhibition GI50 (±standard deviation), Breast (MDA-MB-231). The protocol:
as §1

Data set [8] in a line: Maximum tolerated dose in mice, IP. The note with it: mouse, in vivo, BALB/c strain, 5 consecutive days, two days break, another 5 days. The protocol: (§3) At the next stage, we needed to determine whether the mice would tolerate the drugs, or in other words, what would be the maximum tolerated dose (MTD) of each of the bisamidoximes. The three bisamidoximes JJMB5, JJMB7, and JJMB9, as well as a control group of only the vehicle (the solvent used to dissolve the drugs) were injected intraperitoneally (IP) to mice. The protocol included injection of the desired concentration of bisamidoxime over 5 consecutive days, two days of break, and another cycle of 5 successive days of injections.

The test system of a further data set is EpH4 cells. Briefly: Sensitivity of EpH4 cells to bisamidoximes. Format: cell-based. The note with it: in vitro cell culture. The protocol: The efficacy of killing malignant cells in mice and slowing down the tumors or eradicating them can be indicative to these compounds' efficacy in humans. To check if the bisamidoximes are potent in mice, breast cancer cells were identified that could be implanted in female mice mammary fat pads. The identified cells were tested to see if they are sensitive to bisamidoximes in vitro (in tube/cell culture).
as §3

The test system of data set [9] is murine mammary carcinoma cells 4T1. As to the kind of experiment: Growth inhibition of murine mammary cancer cell line 4T1. The conditions noted are these: Mus musculus; 4T1 cells, single drugs; read-out: growth inhibition 50% (GI50) on 4T1 cells. Format: cell-based.
Data set [10] has as its system TSA-induced hyperacetylation. Briefly: Reversion of HDAC-inhibitor (TSA)-induced hyperacetylation. Format: cell-based, human. The note with it: HCT-116, listed as JJM6. As for the experimental part:
To further understand the mechanism of action of the four active compounds (JJMB5, JJMB6, JJMB7, and JJMB9), we performed several experiments that are summarized in Table 2. All the assays were performed on HCT-116 (a colorectal carcinoma), since all of the four specific potent drugs could induce death of these cells. […] Another HAT, GCN5, was not inhibited by any of the compounds. JJMB5, JJM6 and JJMB9 could reverse the activity of an HDAC inhibitor (TSA); thus the hyperacetylation induced by TSA could be reversed by these compounds.
This is another indication that the three compounds, JJMB5, JJMB6, and JJMB9 are HAT inhibitors.

Data set [11] has as its system 4T1 breast carcinoma cells implanted in mammary fat pad. Briefly: 4T1 mammary carcinoma tumor volume in BALB/c mice. Format: in vivo, mouse. The note with it: 4T1 in mammary fat pad, two 5-day cycles. As for the experimental part: The bisamidoxime JJMB7 was studied to see if the compound can lower the rate of tumor growth and the number and size of metastases in mice. […] FIG. 2 depicts a graph of mammary tumor volumes in JJMB7 treated and untreated control BALB/c mice. In the experiment, six-week-old BALB/c mice were implanted with 10,000 4T1 breast carcinoma cells in the mammary fat pad (MFP). […] JJMB7 was administered for five consecutive days, followed by a two day break, and another five consecutive days of injections. Mice were weighed every day and observed for signs of pain and discomfort. Tumors were visible 7 days after implantation, and tumor dimensions were measured, and volumes were calculated until day-24, when mice were euthanized. A One-Way Repeated Measures ANOVA was performed to determine a statistical significance (p≤0.05).
The murine mammary carcinoma 4T1 cells were implanted in the mammary fat pad of BALB/c female mice (10,000 cells per mice) and a day later we started a protocol of two 5-day cycles (with 2 days break) of chemotherapy delivered IP. The amidoximes were delivered at their MTD level—JJMB5 with 0.26 mg/kg, and JJMB9 with 0.78 mg/kg. One-Way Repeated-Measure ANNOVA was performed to show the significance (p≤0.05, n=10).

The nature of data set [12]: Mouse Liver Microsomes stability. Format: in vitro ADME. The conditions noted are these: Mouse Liver Microsomes (FIG. 5); read-out: t1/2 in Mouse Liver Microsomes. On the technique in general: Microsomes from liver hold many membrane-bound enzymes, among them those of drug oxidation.
Setting [13] is: 48 hours, individually or in combination with cisplatin, read-out: Growth Inhibition (GI50), HCT-116, cisplatin combination study.
Setting [14] is: Homo sapiens, MCF7, 72 hours, 0.2-500 μM, mean ±SD n=3, * = highly purified, more potent batches, read-out: Growth Inhibition GI50 (±standard deviation), Breast (MCF-7), 72 hours.
The mark [15] stands for this setting: Homo sapiens, HCT-116, 48 hrs, 0.2-500 μM, mean ±SD n=3, * = highly purified, more potent batches, read-out: Growth Inhibition GI50 (±standard deviation), Colon (HCT-116).
The mark [16] stands for this setting: Homo sapiens, MCF7, 72 hours, individually or in combination with cisplatin, read-out: Growth Inhibition (GI50), MCF-7, cisplatin combination study.
The mark [17] stands for this setting: Homo sapiens, MCF7, 72 hours, individually or in combination, read-out: Growth Inhibition (GI50), MCF-7, bisamidoxime combination study.

With `N.N.[Cl][Pt][Cl]` [Cisplatin, cisplatin, reference compound], the GI50 in [1] (72 hours, individually or in combination with cisplatin, read-out: Growth Inhibition (GI50), MCF-7, cisplatin combination study) is 40.8 µM and 48.5 µM; in data set [2] (setting [13]) it was 68.6 µM and 73 µM and 66.3 µM.
Take `C=C(C)[C@@H](CC=C(C)C)C[C@@]12C[C@@H](CC=C(C)C)C(C)(C)[C@@](CC=C(C)C)(C(=O)C(C(=O)c3ccc(O)c(O)c3)=C1O)C2=O` [Garcinol, garcinol, reference compound]: the GI50 in data set [3] is 55 ± 7 µM; in [4], 27 ± 4 µM; in data set [6], 43 ± 5 µM; in data set [7], 44 ± 4 µM; in data set [1] (setting [14]), 55 ± 7 µM; in [2] (setting [15]) it was 39 ± 8 µM. Besides, the GI50 at 48 h in data set [5] is more than 500 µM.
Take `Cc1ccc(/C(=N/O)NCCCN/C(=N\O)c2ccc(C)cc2)cc1` [JJMB5]: the GI50 in [3] was more than 500 µM; in data set [4], 335 ± 4 µM; in data set [6] it was more than 500 µM; in data set [7], 125 ± 4 µM; in [1] (setting [14]), 33.2 µM; in data set [1] (setting [16]) it was 33.2 ± 6 µM. Besides, the GI50 turned out to be 28.2 ± 7.1 µM in data set [1] (setting [17]), 19.3 ± 2.4 µM in data set [2] (setting [13]), 8.5 µM in [2] (setting [15]) and 6.3 ± 2.3 µM in data set [9]. Further, the GI50 at 48 h in [5] is more than 500 µM. Further, in [8], the MTD worked out at 0.26 mg/kg. Moreover, in the data set on EpH4 cells, the “sensitivity of EpH4 cells to bisamidoximes” value (“sensitivity of EpH4 cells” below) was “highly sensitive”.
Consider `Cc1ccc(/C(=N/O)NCCCCN/C(=N\O)c2ccc(C)cc2)cc1` [JJMB6], for which the GI50 in [3] is more than 500 µM; in [4] it was more than 500 µM; in [6] it was more than 500 µM; in data set [7], more than 500 µM; in data set [1] (setting [14]), more than 500 µM; in data set [2] (setting [15]), 17 ± 4 µM. In data set [5], the GI50 at 48 h was more than 500 µM. In addition, the “Reversion of HDAC-inhibitor-induced hyperacetylation” value in [10] is listed as “could reverse”.
As to `Cc1ccc(/C(=N/O)NCCN/C(=N\O)c2ccc(C)cc2)cc1` [JJMB7], the GI50 in data set [3] was more than 500 µM; in [4], 275 ± 3 µM; in data set [6], more than 500 µM; in data set [7], 85 ± 3 µM; in data set [1] (setting [14]), more than 500 µM; in [2] (setting [13]), 16.2 ± 2 µM. The GI50 in data set [2] (setting [15]) was 6.2 µM; in [9], 14.7 ± 6.3 µM. Moreover, the GI50 at 48 h in data set [5] was more than 500 µM. Besides, the “mammary carcinoma tumor volume (FIG. 2)” value in [11] (BALB/c mice, 1.56 mg/kg IP, until day-24) is “significantly reduce”. In data set [8], this compound gave an MTD of 1.56 mg/kg. The “sensitivity of EpH4 cells” value in the data set on EpH4 cells is given as “highly sensitive”.
Consider `Cc1ccc(/C(=N/O)NCCCN(C)CCCN/C(=N\O)c2ccc(C)cc2)cc1` [JJMB9], for which the GI50 in data set [3] is more than 500 µM; in [4], 40 ± 7 µM; in data set [6], more than 500 µM; in data set [7] it was more than 500 µM; in [1] (setting [14]) it was 8.5 µM; in [1] (setting [16]), 8.5 ± 2.5 µM. In addition, the GI50 was determined as 5.3 ± 2.7 µM in data set [1] (setting [17]), 16 µM in [2] (setting [15]) and 33.3 ± 2.4 µM in [9]. Moreover, the GI50 at 48 h in data set [5] was more than 500 µM. Moreover, the “breast cancer tumor volume (FIG. 3)” value in [11] (BALB/c female mice, 0.78 mg/kg IP, p≤0.05, n=10) is on record as “significantly reduced”. The MTD in data set [8] came out at 0.78 mg/kg. Further, in the data set on EpH4 cells, the “sensitivity of EpH4 cells” value is given as “highly sensitive”. In addition, the half-life in data set [12] was 13 min.

What is called GI50 is the concentration that inhibits growth by half. A word on the MTD: it is the largest dose that counted as tolerated. Higher therefore signals better tolerability.
